Measurements reported in patent publication US20250171468A1, “PHENOXIDO COPPER COMPLEXES AND METHODS FOR USING THEM IN THE TREATMENT OF CANCER” (UNIVERSITY OF LOUISIANA LAFAYETTE, priority 2023, published 2025).

What was measured:
[1] = tested on: A2780 cells; test: Cell cycle analysis by flow cytometry; assay type: cell-based, human; conditions: A2780, 24 h; 4 and 6 at 3 μM, 7 at 15 μM, cisplatin at 19 μM
Experimental: Similar cellular effects were described for a number of copper(II) complexes previously for a number of copper(II) complexes involving various ligands [40-43.]
The A2780 cells (Sigma, 93112519-1VL) were cultivated according to the producer's instructions and seeded at the concentration of 10^4 cells/well in 96-wells. […] After 24 h, the cells were washed once with PBS (0.1 M, pH 7.4) and cell cycle analysis was performed according to the protocol based on BD Cycletest™ Plus DNA kit (Becton Dickinson, USA). Measurements were performed using BD FACSVerse flow cytometer (Becton Dickinson, USA) in three independent experiments, each done in duplicate, while at least 5×10^3 events were recorded for each sample.

[2] = tested on: A2780 cells; test: Cell death induction, Annexin V / propidium iodide flow cytometry; assay type: cell-based, human; conditions: A2780, 24 h; applied at concentration causing 50% decrease in proliferation
Experimental: The induction of cell death in A2780 cancer cells was monitored by flow cytometry. Three types of cells were identified by incubation with Annexin V antibody and propidium iodide (PI). The normal cells were Annexin V and PI negative.
(§1) Both assays were performed according to the manufacturers' protocols with one modification in caspase induction assay, which was the use of CellEvent™ Caspase-3/7 Green Detection Reagent only for detection of Caspase-3/7 activation. […] After the 24 h incubation period, cells were washed once with PBS (0.1 M, pH 7.4), detached by trypsinization (0.25% trypsin-EDTA (Gibco™), resuspended in 500 L of culture medium and divided into two separate samples. The first sample was used in the apoptosis assay and the second one was used to detect the activation of caspases 3/7 in A2780 cells. The samples were analyzed using the BD FACSVerse flow cytometer (Becton Dickinson, USA) in three separate experiments, while at least 10^4 events were recorded for each sample prepared in duplicates.

[3] = tested on: caspases 3/7 in A2780 cells; test: Activation of effector caspases 3/7, flow cytometry; assay type: cell-based, human; conditions: A2780, 24 h incubation, IC50 concentrations
Experimental: To assess the participation of apoptosis on the cell death induced by the studied complexes, the activity of effector caspases 3/7 in A2780 cells incubated with the tested compounds was determined by flow cytometry. […] This unequivocally means that the cell death they induce proceeds via a mechanism independent from caspases.
as §1

[4] = tested on: A2780 cells; test: Autophagy induction, CYTO-ID kit flow cytometry; assay type: cell-based, human; conditions: A2780, 24 h; 4 and 6 at 3 μM, 7 at 15 μM, cisplatin at 19 μM
Experimental: To further explore the mechanisms involved in the cellular death of A2780 cells induced by the complexes, the autophagy progression was monitored in the cells using a specific flow cytometry-based kit. The autophagy signaling caused by the incubation with the tested compounds was compared to the untreated control group of cells and positive control group, which included cells treated with the chloroquine/rapamycin (CQ/Rapamycin) mixture inducing strong autophagic response in cells. […] In fact, autophagy might have a dual role in cancer as it can help the cancer cells to overcome metabolic stress (hypoxia, lack of nutrients) and suppress tumor progression through degradation of oncogenic proteins. Many anticancer agents, including the copper(II) complexes, which mechanism of action includes different cellular processes, such as inhibition of mTORC1, proteasome inhibition, inhibition of histone deacetylases or topoisomerases, induce autophagy. On the other hand, the apoptosis is evidently a main route of cell death in the A2780 cells caused by complex 7.
The analyses were performed according to the manufacturer's protocol on A2780 cells pretreated for 24 h by the tested compounds. […] The samples were analyzed using the BD FACSVerse flow cytometer (Becton Dickinson, USA) in three separate experiments, while at least 10^4 events were recorded for each sample prepared in duplicates. […]

[5] = tested on: A2780 cells; test: Intracellular ROS/superoxide production; assay type: cell-based, human; conditions: A2780, 24 h
Experimental: The effects of the tested compounds on the ROS production in A2780 cells and on the progression of the oxidative stress caused by the known pro-oxidant agent (pyocyanin) were observed by means of flow cytometry using a specific kit of intracellular ROS, and superoxide detection, respectively. […] Approximately the same pattern was identified also in case of superoxide production (FIG. 16).
The oxidative stress analysis was performed using ROS-ID® Total ROS/Superoxide detection kit (Enzo Life Sciences, US) according to the manufacturer protocol. The samples were analyzed in triplicates on multimode microplate reader Infinite PRO M200 (Tecan, Switzerland). The control samples contained 500 iM pyocyanin.

[6] = tested on: A2780 cells; test: Mitochondrial membrane potential analysis; assay type: cell-based, human; conditions: A2780, 24 h incubation, IC50 concentrations
Experimental: In order to get more insight about the mechanisms involved in the induction of cell death in the A2780 cells treated with the complexes 4, 6, and 7, the detection of mitochondrial membrane potential in the cells was performed by means of flow cytometric analysis using a specific kit. […] Both these agents induced the apoptosis via the intrinsic route of apoptosis activation, characterized by the efflux of cytochrome c from the damaged mitochondria to the cytoplasm of the cells, followed by the formation of […] and activation of effector caspases 3/7 leading to the destruction of cell cytoskeleton and fragmentation of DNA. […] The major suspect in this case is the induction of cuproptosis, a relatively newly discovered mechanism of cell death caused by copper, which is characterized by the high intracellular levels of copper, low levels of apoptosis, yet substantial antiproliferative effects on the target cells. […]
The cells were washed with PBS, detached by trypsin treatment, isolated by centrifugation, and resuspended in 500 iL of culture medium. […] The samples were measured in triplicates, while at least 10^4 events were recorded using BD FACSVerse flow cytometer (Becton Dickinson, USA). […]

[7] = tested on: all tested cancer cell lines; conditions: cited from earlier work

Q: For `N.N.[Cl][Pt][Cl]` [Cisplatin, cisplatin, reference compound], which cell-cycle modification [1] is on record?
A: significant arrest of cells in S phase

Q: What about the “induction of cell death (apoptosis and necrosis)” value [2] of the same molecule?
A: most intensive induction of cell death processes

Q: What about the “activation of effector caspases 3/7” value [3] of the same molecule?
A: significant activation

Q: What about the activation of autophagy [4] of the same molecule?
A: significant activation of autophagy

Q: What about the “promotion of oxidative stress (ROS production) by the compound itself” value ([5]; no pyocyanin pretreatment) of the same molecule?
A: none of the tested complexes 4, 6, and 7 nor cisplatin showed any significant abilities to promote the oxidative stress by themselves

Q: And the “effect on oxidative stress caused by pyocyanin pretreatment” value ([5]; pretreated with pyocyanin)?
A: only slight antioxidative effects

Q: And the mitochondrial membrane damage [6]?
A: impairment of the mitochondrial membrane function/permeability

Q: With `[Cu+2].[O-]c1cccc2cccnc12.[O-]c1cccc2cccnc12` [[Cu(8-HQ)2]] as the molecule, how does the “IC50 compared with cisplatin” value [7] read?
A: less than that of cisplatin

Q: With `[Cu+2].[O-]c1c(I)cc(Cl)c2cccnc12.[O-]c1c(I)cc(Cl)c2cccnc12` [[Cu(CQ)2]] as the molecule, how does the “IC50 compared with cisplatin” value [7] read?
A: less than that of cisplatin

Q: With `CCN(CC)C(=S)[S-].CCN(CC)C(=S)[S-].[Cu+2]` [[Cu(DDC)2]] as the molecule, how does the “IC50 compared with cisplatin” value [7] read?
A: less than that of cisplatin

Q: For `On1ccccc1=S.On1ccccc1=S.[Cu]` [[Cu(Pyr)2]], which “IC50 compared with cisplatin” value [7] is on record?
A: less than that of cisplatin
